Data set [1] relates to Lactobacillus kunkeei DSM 12361. Nature of the data set: Growth of fructophilic lactobacteria on FYP broth with glucose-fructose syrup. It is filed as cell-based. The settings on record: FYP medium with glucose-fructose syrup; 21.5 mg/l maltol, 2.05 mg/l p-coumaric acid, 2.25 mg/l caffeic acid where present. The procedure: Optimization of the ratio of hydroxycinnamic acids, p-coumaric and caffeic, and maltol, was obtained by using experiments designed according to response surface technique, using the Software Design-Expert® v. 9.0 (Stat-Ease, Minneapolis, MN, USA). Two bioassays were used, wherein the effect of different combinations of maltol and hydroxycinnamic acids, p-coumaric and caffeic, were determined, on fructophilic lactobacteria growth and on oxidative stress and on the induction of CYP9Q, enzyme from cytochrome P450 monooxigenase class, with key role in defense systems of bees (Mao et al., 2013, PNAS, 110: 8842-8846). […] The ratio 4.1 parts p-coumaric acid, 4.5 parts caffeic acid and 43 parts maltol, determined as being optimal in terms L. kunkeei development enhancement, was re-tested in laboratory conditions, using 400 g/l glucose-fructose syrup (Isosugar 031™, Tate and Lyle, London, United Kingdom, 74.8% dry matter, 50.2% of which is fructose), instead of 300 g/l of fructose on FYP broth. […]

The test system of another data set is CYP9Q. The data set is described as follows: CYP9Q induction in bees fed bee candy (quantitative RT-PCR). It is filed as in vivo, honey bees. The settings on record: 3 days, control = 100%, 4.3 µg/g maltol, 0.41 µg/g p-coumaric acid, 0.45 µg/g caffeic acid where present (mixture row prints µg/l). The protocol: (§1) Optimization of the ratio of hydroxycinnamic acids, p-coumaric and caffeic, and maltol, was obtained by using experiments designed according to response surface technique, using the Software Design-Expert® v. 9.0 (Stat-Ease, Minneapolis, MN, USA). Two bioassays were used, wherein the effect of different combinations of maltol and hydroxycinnamic acids, p-coumaric and caffeic, were determined, on fructophilic lactobacteria growth and on oxidative stress and on the induction of CYP9Q, enzyme from cytochrome P450 monooxigenase class, with key role in defense systems of bees (Mao et al., 2013, PNAS, 110: 8842-8846). […] After three days bees midguts were taken by dissection, frozen in liquid nitrogen and stored at -80 ° C, to extract total RNA for quantitative RT-PCR analysis of CYP9Q3 expression and for the determination of lipid peroxides (as malondialdehide) as markers of oxidative stress. RNA was extracted from frozen abdomens by TRIzol method (Invitrogen, Thermo Fisher Scientific, Waltham, MA, USA), treated with DNAse (Ambion® protocol, Thermo Fisher Scientific) and used for the quantitative analysis of the expression CYP9Q by RT-PCR, as described by Mao et al., 2011 (PNAS, 108, 12657-12662). Lipid peroxides were determined as malondialdehid ? , with tiobarbituric acid (Rael et al., 2004, J. Biochem. Mol. Biol, 3, 749-752).

In data set [2] the test system is lipid peroxides (as malondialdehide). Nature of the data set: Oxidative stress in midguts of bees fed bee candy (lipid peroxides as MDA, thiobarbituric acid). As to conditions: 3 days, control = 100%, 4.3 µg/g maltol, 0.41 µg/g p-coumaric acid, 0.45 µg/g caffeic acid where present (mixture row prints µg/l). It is filed as in vivo, honey bees. The protocol: as §1

Molecules are shown by their SMILES.

`Cc1occc(=O)c1O` [maltol, 3-Hydroxy-2-methyl-4H-piran-4-one]: in data set [1], the “Culture development (% control)” value amounted to 76.8 % control and the “Lactic acid production (% control)” value is listed as 67,9 % control. The “Inducing CYP9Q (%)” value in the data set with CYP9Q is given as 102.9%. Also, in data set [2], the “Oxidative stress MDA (%)” value is 123,7%.

(Values after patent EP2949220A1, “Nutraceutic supplement for bees families and process for its administration” (SC Teso Spec SRL, priority 2014, dated 2015).)
